Test system: reserpine induced hypothermia
Assay: reversal of reserpine induced hypothermia test in mice
Assay type: in vivo

C[C@H]1CCN(C(=O)[C@H](Cc2c[nH]cn2)NC(=O)[C@@H]2CCC(=O)N2)[C@@H]1C(N)=O [Example 1, L-Pyroglutamyl-L-histidyl-trans-3-methyl-L-prolineamide]
calorigenic effect in reversal of reserpine induced hypothermia (fully reserpinised mice, over 4 hours, P < 0.05, Mann Whitney U test): significant | potency relative to TRH (times more potent) (mice, doses 1-30 mg/Kg p.o.): 3-4 time
